From the supplement of paper PMC10307832 come the findings set out here.

Experiment in all cases: relative viability (nuclei count vs DMSO), 5 days (fraction); higher = more cells survive
Compound in the assay “XMD14-99 + Olaparib”: CN1CCN(CC1)C2=CC(=C(C=C2)NC3=NC(=C(S3)C(=O)C4=C(C=CC=C4Cl)Cl)N)OC [XMD14-99] + O=C(c1cc(Cc2n[nH]c(=O)c3ccccc23)ccc1F)N1CCN(C(=O)C2CC2)CC1 [Olaparib] (partner 8 µM)
Summed up:
(§1)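 Relative viability equals treated-well nuclei counts divided by vehicle-well nuclei counts. Counts came from 4× images of lung cancer cell lines grown in 1536-well plates for 5 days after pin-tool dosing on the day after seeding. Dosing used one drug alone or a fixed anchor-drug dose plus five library-drug doses (not always all listed) in √10 steps, and values are medians of duplicate plates.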

Compound in the assay “XMD14-99 + Trametinib”: CN1CCN(CC1)C2=CC(=C(C=C2)NC3=NC(=C(S3)C(=O)C4=C(C=CC=C4Cl)Cl)N)OC [XMD14-99] + CC(=O)Nc1cccc(-n2c(=O)n(C3CC3)c(=O)c3c(Nc4ccc(I)cc4F)n(C)c(=O)c(C)c32)c1 [Trametinib] (partner 0.02 µM)
The essentials: as §1

Compound in the assay “AZD1208 + Phenformin”: N[C@@H]1CCCN(c2c(/C=C3\SC(=O)NC3=O)cccc2-c2ccccc2)C1 [AZD1208] + N=C(N)NC(=N)NCCc1ccccc1 [Phenformin] (partner 250 µM)
Summed up:
as §1

Compound in the assay “XMD14-99 + Linsitinib”: CN1CCN(CC1)C2=CC(=C(C=C2)NC3=NC(=C(S3)C(=O)C4=C(C=CC=C4Cl)Cl)N)OC [XMD14-99] + C[C@]1(O)C[C@@H](c2nc(-c3ccc4ccc(-c5ccccc5)nc4c3)c3c(N)nccn32)C1 [Linsitinib] (partner 1 µM)
Summed up:
as §1

For the cell line UMC-11, the relative viability in the assay with XMD14-99 + Olaparib (first compound 0.08 µM) was 0.363; with XMD14-99 + Olaparib (first compound 0.8 µM), 0.313; in the assay with XMD14-99 + Olaparib (first compound 2.53 µM), 0.345; with XMD14-99 + Olaparib (first compound 8 µM), 0.288; in the assay with XMD14-99 + Trametinib (first compound 0.08 µM), 0.744; with XMD14-99 + Trametinib (first compound 0.8 µM) it was 0.637. The relative viability in the assay with XMD14-99 + Trametinib (first compound 2.53 µM) turned out to be 0.747; in the assay with XMD14-99 + Trametinib (first compound 8 µM), 0.645; in the assay with AZD1208 + Phenformin (first compound 0.08 µM), 0.312; in the assay with AZD1208 + Phenformin (first compound 0.253 µM), 0.355; in the assay with AZD1208 + Phenformin (first compound 0.8 µM) it was 0.339; with AZD1208 + Phenformin (first compound 2.53 µM) it was 0.388. Further, the relative viability was determined as 0.306 in the assay with AZD1208 + Phenformin (first compound 8 µM); 1.03 with XMD14-99 + Linsitinib (first compound 0.08 µM); 1.03 with XMD14-99 + Linsitinib (first compound 0.8 µM); 1.03 with XMD14-99 + Linsitinib (first compound 2.53 µM); 0.858 with XMD14-99 + Linsitinib (first compound 8 µM).
